Assay results reported in US20260335277A1, “CHLOROTONIL DERIVATIVES” (priority 2023, published 2026).
In brackets after ≈: the same amount, converted by molar mass. Read-outs that look alike come from different tables or passages of the source.

Legend:
S. epidermidis DSM-28765 = assay: MIC testing (broth microdilution, EUCAST); type: cell-based; conditions: for MIC: Staphylococcus epidermidis, DSM28765, S. epidermidis DSM-28765, read-out: MIC S. epiderm.; for MIC S. epiderm.: S. epidermidis DSM-28765
Protocol: (§1) Minimal inhibitory concentration (MIC) of the compounds in the present invention was determined using broth microdilution performed according to EUCAST guidelines (ISO20776-1:2019). S. aureus ATCC29213 and E. faecalis ATCC29212 served as quality control strains.

S. aureus Newman = assay: MIC testing (broth microdilution, EUCAST); type: cell-based; conditions: for MIC: Staphylococcus aureus, NEWMAN
Protocol: as §1

E. faecalis ATCC-29212 = assay: MIC testing (broth microdilution, EUCAST); type: cell-based; conditions: for MIC: Enterococcus faecalis, ATCC29212, E. faecalis ATCC-29212; for MIC E. faecalis: E. faecalis ATCC-29212
Protocol: as §1

[1] = tested on: E. faecium DSM-17050 (vancomycin-resistant, VRE); assay: MIC testing (broth microdilution, EUCAST); type: cell-based; conditions: for MIC: Enterococcus faecium
Protocol: as §1

E. faecium DSM-20477 = assay: MIC testing (broth microdilution, EUCAST); type: cell-based; conditions: for MIC: Enterococcus faecium, DSM20477, E. faecium DSM-20477; for MIC E. faecium: E. faecium DSM-20477
Protocol: as §1

[2] = tested on: S. aureus N315 (methicillin-resistant, MRSA); assay: MIC testing (broth microdilution, EUCAST); type: cell-based; conditions: for MIC: Staphylococcus aureus, MRSA
Protocol: as §1

[3] = tested on: clinical isolates of S. aureus; assay: MIC 50/90 profiling in multidrug-resistant clinical isolates; type: cell-based; conditions: Staphylococcus aureus; S. aureus clinical isolates (n = 100)
Protocol: as §1
(§2) Activity of dehalogenil against multidrug-resistant clinical isolates of S. aureus (n=100) and Enterococcus spp. […] Compared to the standard of care (linezolid, daptomycin and tigecyclin), dehalogenil MIC90 was lowered in both pathogens by 20-40-fold with unimodal distribution indicating no pre-existing resistances.

E. faecium = assay: as above; type: cell-based; conditions: Enterococcus faecium; for MIC: read-out: MIC range; for MIC50 / MIC90: E. faecium (n = 98)
Protocol: as §1, §2

zebrafish larvae = assay: Toxicity in zebrafish larvae (MTC / IC50); type: in vivo; conditions: for IC50 in zebrafish larvae: exposed 3 days post fertilization, monitored 48 h; for Selectivity Index S. aureus: zebrafish IC50 / MIC S. aureus Newman; for Selectivity Index P. falc 3D7: zebrafish IC50 vs P. falciparum 3D7
Protocol: (§3) For toxicity screening, zebrafish larvae were exposed three days post fertilization and monitored for 48 h until five days post fertilization. All malformations and pathophysiological phenotypes were noted and used to determine the inhibitory concentration (IC50) of the respective derivative against zebrafish larvae. The selectivity index (SI) was then calculated using the IC50 and the MIC of either S. aureus or P. falciparum 3D7.

[4] = Toxicity in zebrafish larvae (MTC / IC50); type: in vivo; conditions: zebrafish, zebrafish larvae
Protocol: as §3

[5] = tested on: mature gametocytes (stages IV and V); assay: Activity against mature gametocytes (stage IV-V), bioluminescence assay; type: cell-based, P. falciparum
Protocol: Activity against gametocytes was determined using an in vitro bioluminescence assay as described previously (doi.org/10.1371/journal.pone.0035019).

[6] = zebrafish IC50 / MIC S. aureus Newman, read-out: Selectivity Index S. aureus
[7] = zebrafish IC50 vs P. falciparum 3D7, read-out: Selectivity Index P. falc 3D7

| SMILES | MIC (E. faecalis ATCC-29212) [µg/mL] | MIC S. epiderm. (S. epidermidis DSM-28765) [µg/mL] | MIC S. aureus (S. aureus Newman) [µg/mL] | MIC E. faecalis (E. faecalis ATCC-29212) [µg/mL] | MIC VRE [1] [µg/mL] | MIC E. faecium (E. faecium DSM-20477) [µg/mL] | MIC MRSA [2] [µg/mL] | IC50 in zebrafish larvae (zebrafish larvae) [nM] | other results |
| --- | --- | --- | --- | --- | --- | --- | --- | --- | --- |
| C=C1C[C@H]2C=C[C@@H]3[C@@H](C(=O)C(Cl)(Cl)C(=O)[C@H](C)C(=O)O[C@@H](C)/C=C/C=C\[C@H]3C)[C@@H]2[C@H](C)C1Cl (stereo partly drawn) [ChA-9′Cl] | 0.4 (≈ 0.778 µM) | – | – | – | – | – | – | – | MIC (S. epidermidis DSM-28765): 0.4 µg/mL (≈ 0.778 µM); MIC (S. aureus Newman): 0.4 µg/mL (≈ 0.778 µM); MIC [1]: 0.2 µg/mL (≈ 0.389 µM); MIC (E. faecium DSM-20477): 0.2 µg/mL (≈ 0.389 µM); MIC [2]: 0.4 µg/mL (≈ 0.778 µM) |
| CCCCCCCCCC(=O)N[C@@H](Cc1c[nH]c2ccccc12)C(=O)N[C@H](CC(N)=O)C(=O)N[C@@H](CC(=O)O)C(=O)N[C@@H]1C(=O)NCC(=O)N[C@@H](CCCN)C(=O)N[C@@H](CC(=O)O)C(=O)N[C@H](C)C(=O)N[C@@H](CC(=O)O)C(=O)NCC(=O)N[C@H](CO)C(=O)N[C@@H]([C@H](C)CC(=O)O)C(=O)N[C@@H](CC(=O)c2ccccc2N)C(=O)O[C@@H]1C [daptomycin] | – | – | – | – | – | – | – | – | MIC50 [3]: 0.5 µg/mL (≈ 0.309 µM); MIC90 [3]: 4 µg/mL (≈ 2.47 µM); MIC (E. faecium): 0.5 to 4 µg/mL (≈ 0.309 to 2.47 µM); MIC50 (E. faecium): 2 µg/mL (≈ 1.23 µM); MIC90 (E. faecium): 4 µg/mL (≈ 2.47 µM) |
| CC1=CC(C)C2C(C=CC3C(C)C=CC=CC(C)OC(=O)C(C)C(=O)CC(=O)C32)C1 (stereo not drawn) [dehalogenil-2′Epi] | – | 0.4 (≈ 0.974 µM) | 0.2 (≈ 0.487 µM) | 0.2 (≈ 0.487 µM) | 0.1 (≈ 0.244 µM) | 0.05 (≈ 0.122 µM) | 0.1 (≈ 0.244 µM) | 38460 | selectivity ratio [4, 6]: 78.9; selectivity ratio [4, 7]: 1370; IC50 [5]: 25.2 ± 1.63 nM |
| CC1=CC(C)C2C(C=CC3C(C)C=CC=CC(C)OC(=O)CC(=O)CC(=O)C32)C1 (stereo not drawn) [dehalogenil-2′DM, 2′Demethyldehalogenil] | 1.6 (≈ 4.04 µM) | – | – | – | – | – | – | 27030 | MIC (S. epidermidis DSM-28765): 3.2 µg/mL (≈ 8.07 µM); MIC (S. aureus Newman): 0.8 µg/mL (≈ 2.02 µM); MIC [1]: 0.8 µg/mL (≈ 2.02 µM); MIC (E. faecium DSM-20477): 0.8 µg/mL (≈ 2.02 µM); MIC [2]: 0.8 µg/mL (≈ 2.02 µM); selectivity ratio [4, 6]: 13.4; selectivity ratio [4, 7]: 66.2; IC50 ([5]; Plasmodium falciparum): 499 ± 86.8 nM |
| CC1=CC(C)C2C(C=CC3C(C)C=CC=CC(C)OC(=O)C(C)C(=O)C(Cl)=C(O)C32)C1 (stereo not drawn) [ChB1, reference compound] | – | 0.4 (≈ 0.899 µM) | 0.2 (≈ 0.449 µM) | 0.2 (≈ 0.449 µM) | 0.1 (≈ 0.225 µM) | 0.1 (≈ 0.225 µM) | 0.8 (≈ 1.8 µM) | – | – |
| CC1=C[C@@H](C)[C@H]2[C@@H]3C(=O)[C@@](F)(Cl)C(=O)[C@H](C)C(=O)O[C@@H](C)/C=C/C=C\[C@@H](C)[C@@H]3C=C[C@@H]2C1 [ChA-4′F] | 1.6 (≈ 3.46 µM) | – | – | – | – | – | – | – | MIC (S. epidermidis DSM-28765): > 6.4 µg/mL; MIC (S. aureus Newman): 0.8 µg/mL (≈ 1.73 µM); MIC [1]: 1.6 µg/mL (≈ 3.46 µM); MIC (E. faecium DSM-20477): 0.8 µg/mL (≈ 1.73 µM); MIC [2]: 1.6 µg/mL (≈ 3.46 µM) |
| CC1=CC(C)C2C(C=CC3C(C)C=CC=CC(C)OC(=O)C(C)(C)C(=O)C(Cl)=C(O)C32)C1 (stereo not drawn) [ChB1-2′Me] | – | 0.8 (≈ 1.74 µM) | 0.4 (≈ 0.871 µM) | 0.8 (≈ 1.74 µM) | 0.4 (≈ 0.871 µM) | 0.2 (≈ 0.436 µM) | 0.8 (≈ 1.74 µM) | 12310 | Selectivity Index S. aureus (zebrafish larvae): 14.1; Selectivity Index P. falc 3D7 (zebrafish larvae): 114.0 |
| CC1C=CC=CC(C)C2C=CC3CC4(C)OC4C(C)C3C2C(=O)CC(=O)C(C)C(=O)O1 (stereo not drawn) [Dehalogenil-Epo1] | 3.2 (≈ 7.5 µM) | 3.2 (≈ 7.5 µM) | 3.2 (≈ 7.5 µM) | – | 3.2 (≈ 7.5 µM) | 3.2 (≈ 7.5 µM) | 3.2 (≈ 7.5 µM) | 9850 | selectivity ratio [4, 6]: 1.31; selectivity ratio [4, 7]: 4.9 |
| CC1=C[C@@H](C)[C@H]2[C@@H]3C(O)=C(SS)C(=O)[C@H](C)C(=O)O[C@@H](C)/C=C/C=C\[C@@H](C)[C@@H]3C=C[C@@H]2C1 [thiotonil] | – | 0.4 (≈ 0.843 µM) | 0.4 (≈ 0.843 µM) | 0.2 (≈ 0.421 µM) | 0.025 (≈ 0.0527 µM) | 0.025 (≈ 0.0527 µM) | 0.4 (≈ 0.843 µM) | – | Selectivity Index S. aureus (zebrafish larvae): >62.5; Selectivity Index P. falc 3D7 (zebrafish larvae): >892.9; IC50 [5]: 67.4 ± 8.6 nM |
| CC1=C[C@@H](C)[C@H]2[C@@H]3C(=O)[C@@](C)(Cl)C(=O)[C@H](C)C(=O)O[C@@H](C)/C=C/C=C\[C@@H](C)[C@@H]3C=C[C@@H]2C1 [ChA-4′Me] | 1.6 (≈ 3.49 µM) | – | – | – | – | – | – | – | MIC (S. epidermidis DSM-28765): > 1.6 µg/mL; MIC (S. aureus Newman): 1.6 µg/mL (≈ 3.49 µM); MIC [1]: 0.8 µg/mL (≈ 1.74 µM); MIC (E. faecium DSM-20477): 0.8 µg/mL (≈ 1.74 µM); MIC [2]: 1.6 µg/mL (≈ 3.49 µM) |
| CC1=CC(C)C2C(C=CC3C(C)C=CC=CC(C)OC(=O)CC(=O)C(Cl)=C(O)C32)C1 (stereo not drawn) [ChB1-2′DM, 2′Demethylchlorotonil] | – | 1.6 (≈ 3.71 µM) | 0.4 (≈ 0.928 µM) | 0.4 (≈ 0.928 µM) | 0.4 (≈ 0.928 µM) | 0.4 (≈ 0.928 µM) | 0.4 (≈ 0.928 µM) | 33240 | Selectivity Index S. aureus (zebrafish larvae): 35.8 |
| CN(C)c1cc(NC(=O)CNC(C)(C)C)c(O)c2c1C[C@H]1C[C@H]3[C@H](N(C)C)C(=O)C(C(N)=O)=C(O)[C@@]3(O)C(=O)C1=C2O [tigecyclin] | – | – | – | – | – | – | – | – | MIC [3]: 1 to 16 µg/mL (≈ 1.71 to 27.3 µM); MIC50 [3]: 4 µg/mL (≈ 6.83 µM); MIC90 [3]: 8 µg/mL (≈ 13.7 µM); MIC (E. faecium): 0.5 to 16 µg/mL (≈ 0.854 to 27.3 µM); MIC50 (E. faecium): 2 µg/mL (≈ 3.41 µM); MIC90 (E. faecium): 2 µg/mL (≈ 3.41 µM) |
| CC1=C[C@@H](C)[C@H]2[C@@H]3C(=O)C(Cl)=C([O-])[C@H](C)C(=O)O[C@@H](C)/C=C/C=C\[C@@H](C)[C@@H]3C=C[C@@H]2C1.CC1=C[C@@H](C)[C@H]2[C@@H]3C(=O)C(Cl)=C([O-])[C@H](C)C(=O)O[C@@H](C)/C=C/C=C\[C@@H](C)[C@@H]3C=C[C@@H]2C1.CC1=C[C@@H](C)[C@H]2[C@@H]3C(=O)C(Cl)=C([O-])[C@H](C)C(=O)O[C@@H](C)/C=C/C=C\[C@@H](C)[C@@H]3C=C[C@@H]2C1.[Mg+2].[Na+] [ChB2, reference compound] | – | 3.2 | 3.2 | 1.6 | 0.8 | 0.4 | >3.2 | – | – |
| CC1C=CC=CC(C)C2C=CC3CC4(C)OC4C(C)C3C2C(=O)CC(=O)C(C)C(=O)O1 (stereo not drawn) [Dehalogenil-Epo2] | – | 0.8 (≈ 1.88 µM) | 0.4 (≈ 0.938 µM) | 1.6 (≈ 3.75 µM) | 0.4 (≈ 0.938 µM) | 0.8 (≈ 1.88 µM) | 0.2 (≈ 0.469 µM) | 1220 | Selectivity Index S. aureus (zebrafish larvae): 1.30; Selectivity Index P. falc 3D7 (zebrafish larvae): 6.2 |
